Experimental data as given in ChEMBL document CHEMBL3124895, “Fragment-based discovery of potent inhibitors of the anti-apoptotic MCL-1 protein” (Bioorg Med Chem Lett, 2014).

Biological target: Induced myeloid leukemia cell differentiation protein Mcl-1 (Homo sapiens, UniProt Q07820)
Assay: Inhibition of human recombinant MCL-1 (174 to 236) expressed in Escherichia coli BL21(DE3) using 6FAM-GELEVEFATQLRRFGDKLN as substrate after 15 mins by fluorescence polarization Assay

Induced myeloid leukemia cell differentiation protein Mcl-1, sequence (Q07820 whole entry): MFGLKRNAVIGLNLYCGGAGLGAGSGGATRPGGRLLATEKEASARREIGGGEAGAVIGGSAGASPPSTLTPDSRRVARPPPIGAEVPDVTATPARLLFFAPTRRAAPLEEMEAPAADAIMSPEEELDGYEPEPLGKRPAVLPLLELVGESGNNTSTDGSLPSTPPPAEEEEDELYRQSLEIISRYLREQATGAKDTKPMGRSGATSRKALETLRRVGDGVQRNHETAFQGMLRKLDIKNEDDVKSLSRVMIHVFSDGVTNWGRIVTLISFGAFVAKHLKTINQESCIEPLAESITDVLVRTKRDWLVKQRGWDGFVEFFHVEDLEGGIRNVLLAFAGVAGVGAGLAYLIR

Row | Compound | IC50 [nM]
1 | O=C(O)c1cc(-c2ccccc2)ccc1O | 34000
2 | Nc1cccc(-c2ccc(O)c(C(=O)O)c2)c1 | 190000
3 | C=Cc1ccc(C(=O)OCC)c(NS(=O)(=O)c2ccccc2)c1 | 3400
4 | Cc1ccc(-c2ccc(C(=O)O)c(NS(=O)(=O)c3ccc(Oc4ccccc4)cc3)c2)c2ccccc12 | 500
5 | CCCCCc1ccc(S(=O)(=O)Nc2cc(-c3ccc(C)c4ccccc34)ccc2C(=O)O)cc1 | 300
6 | Cc1ccc(-c2ccc(C(=O)O)c(NS(=O)(=O)c3cccc(N4CCOCC4)c3)c2)c2ccccc12 | 200
7 | Cc1ccc(-c2ccc(C(=O)O)c(NS(=O)(=O)c3ccc(NC(=O)NCC(C)C)cc3)c2)c2ccccc12 | 150
8 | Cc1ccc(-c2ccc(C(=O)O)c(NS(=O)(=O)c3ccc(N4CCOCC4)cc3)c2)c2ccccc12 | 110
9 | Cc1ccc(-c2ccc(C(=O)O)c(NS(=O)(=O)c3ccc(C(=O)N(C)C)cc3)c2)c2ccccc12 | 80
10 | Cc1ccc(-c2ccc(C(=O)O)c(NS(=O)(=O)c3ccc(OCCCN4CCOCC4)cc3)c2)c2ccccc12 | 60
11 | Cc1ccc(-c2ccc(C(=O)O)c(NS(=O)(=O)c3ccc(OCCn4cccn4)cc3)c2)c2ccccc12 | 30
12 | Cc1ccc(-c2ccc(O)c(C(=O)O)c2)cc1 | 73000
13 | CS(=O)(=O)Nc1ccccc1-c1ccc(O)c(C(=O)O)c1 | 45000
14 | O=C(O)c1cc(-c2cccc3ccccc23)ccc1O | 31000
15 | O=C(O)c1cc(-c2ccc3ncccc3c2)ccc1O | 22000
16 | Cc1ccccc1-c1ccc(O)c(C(=O)O)c1 | 22000
17 | Cc1ccc(-c2ccc(O)c(C(=O)O)c2)cc1C | 6200
18 | CCCc1ccc(-c2ccc(O)c(C(=O)O)c2)cc1 | 3300

Row | Compound | IC50 [nM]
19 | O=C(O)c1cc(-c2ccc(OCc3ccccc3)cc2)ccc1O | 2200
20 | CCCCOc1ccc(F)c(-c2ccc(O)c(C(=O)O)c2)c1 | 1100
21 | Cc1ccc(S(=O)(=O)Nc2ccccc2-c2ccc(O)c(C(=O)O)c2)cc1 | > 25000
22 | CC(C)(C)OCc1ccccc1-c1ccc(O)c(C(=O)O)c1 | > 25000
23 | O=C(O)c1cc(-c2ccccc2OCc2ccccc2)ccc1O | 7200
24 | O=C(O)c1cc(-c2ccccc2OCc2ccccc2Cl)ccc1O | 780
25 | O=C(O)c1cc(-c2ccccc2COc2cccc(C(F)(F)F)c2)ccc1O | 670
26 | O=C(O)c1cc(-c2ccccc2COc2cccc3ccccc23)ccc1O | 570
27 | O=C(O)c1ccc(-c2cccc3ncccc23)cc1NS(=O)(=O)c1ccccc1 | 37000
28 | Cc1ccc(-c2ccc(C(=O)O)c(NS(=O)(=O)c3ccccc3)c2)cc1 | 4900
29 | Cc1cccc(-c2ccc(C(=O)O)c(NS(=O)(=O)c3ccccc3)c2)c1 | 1800
30 | O=C(O)c1ccc(-c2cccc3ccccc23)cc1NS(=O)(=O)c1ccccc1 | 1000
31 | Cc1ccc(-c2ccc(C(=O)O)c(NS(=O)(=O)c3ccccc3)c2)c2ccccc12 | 400
32 | CCC(C)c1ccc(S(=O)(=O)Nc2cc(-c3ccc(C)c4ccccc34)ccc2C(=O)O)cc1 (stereo not given) | 1200
33 | O=C1CC(c2cccc(C(F)(F)F)c2)=NN1 | 70000
34 | Oc1nc2c(ccc3ccccc32)o1 | 130000
35 | CN(C)c1cccc2ccc(O)cc12 | 280000
